According to publication PMC12731105, “Design and Synthesis of New Quinoxaline Analogs to Regenerate Sensory Auditory Hair Cells” (Cells, 2025):

Assays:
[1] = Plasma protein binding (rapid equilibrium dialysis); format: in vitro ADME, mice; conditions: mouse, plasma, mice plasma protein binding (footnote); RED, 10 µg/mL, four hours, 37 °C; read-out: PPB (% Bound) (converted)
plasma protein = assay: as above; format: in vitro ADME, mice
[2] = Metabolic stability against S9 fraction; format: in vitro ADME; conditions: human, liver S9 fraction, against human S9 fraction (footnote), NADPH, 37 °C; read-out: Metabolic Stability t1/2 (converted)
Experimental: The metabolic stability of the prodrug was assessed in the mouse liver S9 fraction. Briefly, 5 μg/mL of prodrug was incubated with 1 mg/mL mouse liver S9 fraction supplemented with 1 mg/mL nicotinamide adenine dinucleotide phosphate (NADPH) in Dulbecco’s phosphate-buffered saline at 37 °C. At designated time points (i.e., 0, 0.5, 1, 2 h), 100 μL samples were collected and quenched immediately with 300 μL methanol containing 1 μg/mL internal standard. Samples were vortexed for 30 s and centrifuged at 15,000 rpm for 10 min. Supernatant was assessed by LC/MS.

[3] = tested on: mechanotransduction channel activity of neuromast HCs; assay: FM1-43 uptake in zebrafish neuromasts; format: in vivo, zebrafish (Danio rerio); conditions: 300 μM, 7 h, with or without 1 h recovery
Experimental: The styryl pyridinium dye FM1-43 provides an optical measure of mechanotransduction channel function and, therefore, was used as a proxy for the viability of the neuromast cells treated with QX-294 or QX-301, as well as indirect information on the functional capability of newly formed HCs. FM1-43FX (Thermo Scientific, Waltham, MA, USA) uptake experiments in zebrafish were performed as previously described. Zebrafish were incubated with E3 alone (control) or in the presence of Qx-294 or Qx-301, both at 300 μM, for 7 h and then immediately exposed to 3 μM FM1-43FX for 40 s. Alternatively, animals were transferred to a fresh E3 solution for 1 h and then exposed to the dye. For mouse treatment, 24, 48, and 72 h after animals were injected with […] Qx-294 or Qx-301, their cochleae were dissected, transiently exposed to FM1-43 FX dye (1 mg/mL) for 45 s, and then fixed in 4% PFA. All animals were P28 at completion of the treatment. Fluorescence incorporated was quantified according to [19] using ImageJ (ImageJ2 1.54r).

mouse organ of Corti HCs = assay: M7a immunolabeling and HC counts in the mouse organ of Corti; format: in vivo; conditions: mice, single IP 300 mg/kg; for OHC and IHC numbers vs control, 48–72 h: p < 0.05; for Supernumerary M7a-positive cells vs control, 24 h: 24 h post-treatment; for HC numbers in the apex: apical turn
Experimental: (§1) C57BL/6J male and female mice between postnatal day 24 and 30 P-24-30) were randomized into control and experimental groups (9 mice per group per compound), with each experimental group receiving a single intraperitoneal (IP) injection of Qx-294 or Qx-301 at a dose of 300 mg/kg body weight, dissolved in dimethyl sulfoxide (DMSO). Controls consisted of treatment with DMSO alone (vehicle). A total of 90 adult wild-type C57/BL6 mice were used in this study. Based on the analysis, animals were examined at various times following treatment as described below.
Cochlear dissection in mice and immunofluorescence experiments on zebrafish neuromasts and mouse cochleae were performed as previously described. The antibody and labeling kits used in this study included Otoferlin (Developmental Studies Hybridoma Bank, Iowa City, IA, USA, HCS-1), GFP (Novus Biologicals, NB100-1614), and rabbit anti-myosin VIIa (M7a) (Thermo Scientific, Waltham, MA, USA, PA1-936). Species-specific Alexa Fluor-conjugated secondary antibodies were used for detection. Phalloidin conjugated to Alexa 488 (Thermo Scientific, Waltham, MA, USA, O7466) and DAPI were used for labeling stereocilia and the nucleus, respectively.
Cell numbers in mouse cochleae or fish, as well as fish neuromast morphologies, were evaluated in 25 zebrafish per drug and treatment group across three experimental runs. For mouse analyses, 18 cochleae (from 9 mice) per treatment and three experimental repetitions were examined. Images were analyzed at 200X magnification, obtained from different neuromasts and cochlear regions (apex, middle, and base). HCs were quantified in the mouse OC by counting M7a-positive cells, with HC identity further confirmed by phalloidin-labeled stereocilia. Apoptosis and cell proliferation events, on the other hand, were quantified by counting TUNEL- and EdU-positive cells, respectively. Counts were obtained from three randomly selected microscopic fields for each cochlear region, covering at least 1200 μm in total. The number of HCs (IHCs and OHCs) is expressed as units per 200 μm. Cell counting was performed in a double-blind and unbiased manner. A laboratory member conducted the experiments, while another person, who was unaware of the treatment groups to which the cochlea belonged, performed the cell counts. IHCs and OHCs were counted on reconstructed confocal stacks using NIH ImageJ v1.8.0 software. The presence of an HC was defined as an intact, spherical nucleus located in the basal half of an M7a-positive cell. The same person who performed the initial counts recounted a select group of cochleae to determine an intra-rater reliability measure. We used intra-class correlations (ICC) to assess the reliability of the data sets. Reliability statistics were calculated in SPSS v22.0. We used an intra-class correlation coefficient of ≥0.7 to measure strong absolute agreement between the two sets of HC counts being compared. Statistical comparisons between animal groups and treatments were performed using Two-Way ANOVA or Kruskal–Wallis test with post hoc Bonferroni correction for multiple comparisons. Values are presented as ± standard deviation (SD) of the mean. Fluorescence incorporation following treatment with FM1-43 was quantified according to [19] using ImageJ. An unpaired T-test was used to compare the means between treatment groups. p < 0.05 was considered significant. Qx treatments were compared to vehicle-only (control) animals.

mouse organ of Corti = assay: TUNEL assay in the mouse organ of Corti; format: in vivo; conditions: mice, any treatment group (24, 48, 72 h)
Experimental: as §1
In vitro cell proliferation effects of all ten initial compounds (Figure 1A,B) were tested on HEI-OC1, Neuro-2A and HT-1080 cells by TACS® 3-(4,5-dimethylthiazol-2-yl)-2,5-diphenyltetrazolium bromide (MTT) Cell Proliferation Assay (R&D Systems, Minneapolis, MN, USA, 4890-025-K), following the manufacturer’s protocol. Absorbance was measured with SpectraMax® M Series Multi-Mode Microplate Reader with Soft Max Pro 7.2 GxP Software (Molecular Devices, Sunnyvale, CA, USA), and the average OD in control cells was taken as 100% of viability. Upon selecting the most viable compounds (Qx-294 and Qx-301), we proceeded with in vivo experiments. […]

| SMILES | fraction unbound at 4 h, 10 µg/mL [1] | Plasma protein binding (plasma protein) | half-life at 5 μg/mL [2] | FM1-43 fluorescence intensity in neuromasts vs control [3] | OHC and IHC numbers vs control, 48–72 h (mouse organ of Corti HCs) | Supernumerary M7a-positive cells vs control, 24 h (mouse organ of Corti HCs) | HC numbers in the apex (mouse organ of Corti HCs) | Apoptosis (TUNEL) in the OC (mouse organ of Corti) |
| --- | --- | --- | --- | --- | --- | --- | --- | --- |
| c1ccc2nc(N3CCOCC3)cnc2c1 [Qx-294, 2-(morpholine)-quinoxaline] | 0.115 | highly protein-bound | ~57 h | no significant differences | significant increases in both OHC and IHC numbers | not statistically significant | variable, non-significant trend towards more HCs | no signs of apoptosis |
| c1ccc2nc(N3CCCC3)cnc2c1 [Qx-301, 2-(pyrrolidine)-quinoxaline] | ~0.68 |  | 9.1 ± 8.4 h | no significant differences | significant increases in both OHC and IHC numbers | not statistically significant | consistent, significant increase in apical HCs | no signs of apoptosis |
